Measured values: US20240287082A1, “NEW BENZODIAZEPINE DERIVATIVES AS GABA A GAMMA1 PAM” (Hoffmann-La Roche Inc., priority 2021, published 2024)
Like-named read-outs stand apart in the source and are kept apart here.

Experiments:
[1] = biological target: human GABAA α5β2γ1 receptor (Homo sapiens (Human), UniProt P31644+Q8N1C3); assay: Radioligand binding assay, competition for [3H]RO7239181, γ1-containing GABAA subtype α5β2γ1
Experimental: The affinity of compounds at GABAA γ1 subunit-containing receptors was measured by competition for [^3H]RO7239181 (67.3 Ci/mmol; Roche) binding to membranes from HEK293F cells (ThermoFisher R^79007) expressing human (transiently transfected) receptors of composition α5β2γ1, α2β2γ1, α1β2γ1. For better protein expression of the α2 subunit-containing receptors, the 28 amino acid long signal peptide (Met1 to Ala28)of the human GABAA α2 subunit was substituted by the 31 amino acid long signal peptide (Met1 to Ser31) of human GABAA α5 subunit.
(§1) Harvested pellets from HEK293F cells expressing the different GABAA receptor subtypes were resuspended in Mannitol Buffer pH 7.2-7.4 (Mannitol 0.29M, Triethylamine 10 mM, Acetic acid 10 mM, EDTA 1 mM plus protease inhibitors (20 tablets Complete, Roche Diagnostics Cat. No. 05 056 489 001 per liter)), washed two times and then resuspended at 1:10 to 1:15 dilution in the same buffer. Cell disruption was performed by stirring the suspension in a Parr vessel #4637 at 435 psi for 15 minutes, and then the suspensions were centrifuged at 1000×g for 15 minutes at 4° C. (Beckman Avanti J-HC: rotor JS-4.2). The supernatant (S1) was transferred in a 21 Schott flask and the pellet (P1) was resuspended with Mannitol Buffer up to 175 ml. The resuspended pellet was transferred into a 250 ml Corning centrifugal beaker and centrifuged at 1500×g for 10 minutes at 4° C. (Beckman Avanti J-HC: rotor JS-4.2). The supernatant (S1) was then transferred in the 21 Schott flask and the pellet was discarded. The supernatants (S1) were centrifuged in 500 ml Beckman polypropylene centrifugal beaker at 15 000×g for 30 minutes at 4° C. (Beckman Avanti J-20 XP: rotor JLA-10.500). The pellet (P2) was resuspended with Mannitol Buffer 1:1 and frozen at −80° C. The supernatant (S2) was centrifuged in 100 ml Beckman polypropylene centrifugal tubes at 48000×g for 50 minutes at 4° C. (Beckman Avanti J-20 XP: rotor JA-18). The supernatant (S3) was discarded and the pellet (P3) was resuspended with 1:1 Mannitol Buffer. The P2 and P3 protein concentration was determined with the BIORAD Standard assay method with bovine serum albumin as standard and measured on the NANO-Drop 1000. The membrane suspension was aliquots (500 μl per tube) and stored at −80° C. until required.
(§2) Membrane homogenates were resuspended and polytronised (Polytron PT1200E Kinematica AG) in Potassium Phosphate 10 mM, KCl 100 mM binding buffer at pH 7.4 to a final assay concentration determined with a previous experiment.
Radioligand binding assays were carried out in a volume of 200 μL (96-well plates) which contained 100 μL of cell membranes, [3H]RO7239181 at a concentration of 1.5 nM (α5β2γ1) or 20-30 nM (α1β2γ1, α2β2γ1) and the test compound in the range of [0.3-1000]×10^−9 M. Nonspecific binding was defined by 10×10^−6 (α5β2γ1) and 30×10^−6 M RO7239181 and typically represented less than 5% (α5β2γ1) and less than 20% (α1β2γ1, α2β2γ1) of the total binding. Assays were incubated to equilibrium for 1 hour at 4° C. and then, membranes were filtered onto unifilter (96-well white microplate with bonded GF/C filters preincubated 20-50 minutes in 0.3% Polyethylenimine) with a Filtermate 196 harvester (Packard BioScience) and washed 4 times with cold Potassium Phosphate 10 mM pH 7.4, KCl 100 mM binding buffer. After anhydrousing, filter-retained radioactivity was detected by liquid scintillation counting. Ki values were calculated using Excel-Fit (Microsoft) and are the means of two determinations.

[2] = biological target: human GABAA α1β3γ2 receptor (Homo sapiens (Human), UniProt P14867+P18507); assay: Radioligand binding assay, competition for [3H]Flumazenil, γ2-containing GABAA subtype α1β3γ2
Experimental: The affinity of compounds at GABAA γ2 subunit-containing receptors was measured by competition for [^3H]Flumazenil (81.1 Ci/mmol; Roche) binding to HEK293F cells expressing human (transiently transfected) receptors of composition α1β3γ2.
Harvested pellets from HEK293F cells expressing the different GABAA γ2 receptor subtypes were resuspended in Mannitol Buffer pH 7.2-7.4 and processed as described above for the cells expressing the GABAA γ1 subunit-containing receptors.
Assays were incubated to equilibrium for 1 hour at 4° C. and harvested onto GF/C uni-filters (Packard) by filtration using a Packard harvester and washing with ice-cold wash buffer (50 mM Tris; pH 7.5). After anhydrousing, filter-retained radioactivity was detected by liquid scintillation counting. Ki values were calculated using Excel-Fit (Microsoft) and are the means of two determinations.

[3] = biological target: human GABAA α2β2γ1 receptor (Homo sapiens (Human), UniProt P47869+Q8N1C3); assay: Radioligand binding assay, competition for [3H]RO7239181, γ1-containing GABAA subtype α2β2γ1; details: for γ2/γ1 Selectivity Ratio: Ki α1β3γ2 (nM)/Ki α2β2γ1 (nM); for LogSel: Log[Ki α1β3γ2 (nM)/Ki α2β2γ1 (nM)]
Experimental: (§3) The affinity of compounds at GABAA γ1 subunit-containing receptors was measured by competition for [^3H]RO7239181 (67.3 Ci/mmol; Roche) binding to membranes from HEK293F cells (ThermoFisher R^79007) expressing human (transiently transfected) receptors of composition α5β2γ1, α2β2γ1, α1β2γ1.
as §1, §2
(§4) Assays were incubated to equilibrium for 1 hour at 4° C. and then, membranes were filtered onto unifilter (96-well white microplate with bonded GF/C filters preincubated 20-50 minutes in 0.3% Polyethylenimine) with a Filtermate 196 harvester (Packard BioScience) and washed 4 times with cold Potassium Phosphate 10 mM pH 7.4, KCl 100 mM binding buffer. After anhydrousing, filter-retained radioactivity was detected by liquid scintillation counting. Ki values were calculated using Excel-Fit (Microsoft) and are the means of two determinations.

[4] = biological target: human GABAA α1β2γ1 receptor (Homo sapiens (Human), UniProt P14867+Q8N1C3); assay: Radioligand binding assay, competition for [3H]RO7239181, γ1-containing GABAA subtype α1β2γ1; details: membranes of HEK293F cells, [3H]RO7239181 20-30 nM, mean of two determinations
Experimental: as §3, §1, §2, §4

h-GABA-A α2β2γ1 = h-GABA-A α2β2γ1 (Homo sapiens (Human), UniProt P47869+Q8N1C3); assay: Two-electrode voltage clamp electrophysiology in Xenopus oocytes expressing GABAA receptors, modulation of GABA EC20 current; format: cell-based; details: for Efficacy (GABA) %: % modulation of GABA EC20 = 100*(Fold increase−1), compound at 30-fold Ki α2β2γ1; for Fold increase h-GABA-A α2β2γ1 oocyte @ 30-fold Ki: Xenopus oocytes, GABA EC20, test compound at approx. 30-fold its Ki α2β2γ1
Experimental: Xenopus laevis oocytes at maturation stages V-VI were used for the expression of cloned mRNA encoding GABAA receptor subunits. Oocytes ready for RNA micro-injection were bought from Ecocyte, Castrop-Rauxel, Germany and stored in modified Barth's medium (composition in mM: NaCl 88, KCl 1, NaHCO3 2.4, HEPES 10, MgSO4 0.82, CaNO3 0.33, CaCl2 0.33, pH=7.5) at 20° C. until the experiment.
Oocytes were plated in 96-well plates for microinjection using the Roboinject automated instrument (MultiChannelSystems, Reutlingen, Germany). Approximately 50 nL of an aqueous solution containing the RNA transcripts for the subunits of the desired GABAA receptor subtype was injected into each oocyte. […] Oocytes were kept in modified Barth's medium (composition in mM: NaCl 88, KCl 1, NaHCO3 […], HEPES 10, MgSO4 0.82, CaNO3 0.33, CaCl2 0.33, pH=7.5) at 20° C. until the experiment.
Electrophysiological experiments were performed using the Roboocyte instrument (MultiChannelSystems, Reutlingen, Germany) on days 3 to 5 after the micro-injection of mRNA. During the experiment the oocytes were constantly superfused by a solution containing (in mM) NaCl 90, KCl 1, HEPES 5, MgCl2 1, CaCl2 1 (pH 7.4). Oocytes were impaled by two glass microelectrodes (resistance: 0.5-0.8 MΩ) which were filled with a solution containing KCl 1M+K-acetate 1.5 M and voltage-clamped to −80 mV. The recordings were performed at room temperature using the Roboocyte two-electrode voltage clamp system (Multichannelsystem). After an initial equilibration period of 1.5 min GABA was added for 1.5 min at a concentration evoking approximately 20% of a maximal current response (EC20). After another rest interval of 2.5 min GABA was again added evoking a response of similar amplitude and shape. […] Current traces were recorded at a digitization rate of 10 Hz during and shortly before and after the GABA application.
Each compound and concentration was tested on at least 3 oocytes. Different oocytes were used for different compound concentrations.
For the analysis, the digitized current traces of the first and second GABA response were superimposed and, if necessary, rescaled to equal maximal amplitudes. The ratio between the two responses during the time interval of test compound application was calculated point by point. The extremum of the resulting “ratio trace” was taken as the efficacy (“Fold increase”) of the compound expressed as “% modulation of GABA EC20” (100*(Fold increase−1)).

[5] = read-out: Ki h-GABAA α2β2γ1, Table 2, membranes of HEK293F cells, [3H]RO7239181

C[C@@H]1N=C(c2c(F)cccc2F)c2c(ccc(C(F)(F)F)c2Cl)-n2cc(CO)c(=O)nc21 [Example 29, (5S)-8-chloro-7-(2,6-difluorophenyl)-2-(hydroxymethyl)-5-methyl-9-(trifluoromethyl)-5H-pyrimido[1,2-a][1,4]benzodiazepin-3-one]
Ki ([1]; membranes of HEK293F cells, [3H]RO7239181 1.5 nM, mean of two determinations, read-out: Ki h-GABAA α5β2γ1): 11.2 nM | Ki ([2]; HEK293F cell membranes, [3H]Flumazenil 1 nM, mean of two determinations, read-out: Ki h-GABAA α1β3γ2): 13100 nM | γ2/γ1 Selectivity Ratio [3]: 292.6 | LogSel [3]: 2.47 | Ki ([3]; Table 2, membranes of HEK293F cells, [3H]RO7239181, read-out: Ki h-GABAA α2β2γ1): 44.6 nM | Ki ([3]; membranes of HEK293F cells, [3H]RO7239181 20-30 nM, mean of two determinations, read-out: Ki h-GABAA α2β2γ1): 44.6 nM | Ki [4]: 113 nM

Cc1ccc2c(c1Cl)C(c1c(F)cccc1F)=N[C@@H](C)c1nc(=O)c(C)cn1-2 [Example 8, (5S)-8-chloro-7-(2,6-difluorophenyl)-2,5,9-trimethyl-5H-pyrimido[1,2-a][1,4]benzodiazepin-3-one]
Ki [1]: 2 nM | Ki [2]: 1240 nM | Ki [3]: 37.7 nM | γ2/γ1 Selectivity Ratio [3]: 32.7 | LogSel [3]: 1.51 | Ki [3, 5]: 37.7 nM | Efficacy (GABA) % (h-GABA-A α2β2γ1): 115% | Fold increase h-GABA-A α2β2γ1 oocyte @ 30-fold Ki (h-GABA-A α2β2γ1): 2.15

Cc1cn2c(nc1=O)[C@H](C)N=C(c1c(F)cccc1F)c1c-2ccc(Cl)c1Cl [Example 7, (5S)-8,9-dichloro-7-(2,6-difluorophenyl)-2,5-dimethyl-5H-pyrimido[1,2-a][1,4]benzodiazepin-3-one]
Ki [1]: 1.4 nM | Ki [2]: 695 nM | Ki [3]: 11.3 nM | γ2/γ1 Selectivity Ratio [3]: 61.2 | LogSel [3]: 1.79 | Ki [3, 5]: 11.3 nM | Efficacy (GABA) % (h-GABA-A α2β2γ1): 53% | Fold increase h-GABA-A α2β2γ1 oocyte @ 30-fold Ki (h-GABA-A α2β2γ1): 1.53

CCc1cn2c(nc1=O)[C@H](C)N=C(c1c(F)cccc1F)c1c-2ccc(Cl)c1Cl [Example 14, (5S)-8,9-dichloro-7-(2,6-difluorophenyl)-2-ethyl-5-methyl-5H-pyrimido[1,2-a][1,4]benzodiazepine-3-one]
Ki [1]: 2.3 nM | Ki [2]: 909 nM | Ki [3]: 15.6 nM | γ2/γ1 Selectivity Ratio [3]: 58.4 | LogSel [3]: 1.77 | Ki [3, 5]: 15.6 nM | Efficacy (GABA) % (h-GABA-A α2β2γ1): 66% | Fold increase h-GABA-A α2β2γ1 oocyte @ 30-fold Ki (h-GABA-A α2β2γ1): 1.66

O=c1ccn2c(n1)CN=C(c1c(F)cccc1F)c1c-2ccc(Cl)c1Br [Example 17, 8-bromo-9-chloro-7-(2,6-difluorophenyl)-5H-pyrimido[1,2-a][1,4]benzodiazepin-3-one]
Ki [1]: 1 nM | Ki [2]: 507 nM | Ki [3]: 13.7 nM | γ2/γ1 Selectivity Ratio [3]: 36.9 | LogSel [3]: 1.57 | Ki [3, 5]: 13.7 nM | Efficacy (GABA) % (h-GABA-A α2β2γ1): 79% | Fold increase h-GABA-A α2β2γ1 oocyte @ 30-fold Ki (h-GABA-A α2β2γ1): 1.79
